Our source for the inhibition and IC50 values is ChEMBL document CHEMBL4406797, “Histone acetyltransferase inhibitors: An overview in synthesis, structure-activity relationship and molecular mechanism” (Eur J Med Chem, 2019).

SMILES strings stand for the structures. In brackets after ≈: the same amount, converted by molar mass.

Test [1] concerns the target T1, Histone acetyltransferase KAT7 (Homo sapiens, UniProt O95251). The conditions noted are these: 10 uM.
For test [2], the target named is T1, Histone acetyltransferase KAT7. As to the kind of experiment: Inhibition of KAT7 (unknown origin).
The target of test [3] is Histone acetyltransferase KAT5 (Homo sapiens, UniProt Q92993). As to the kind of experiment: Inhibition of KAT5 (unknown origin).
Histone acetyltransferase KAT5, sequence (Q92993 whole entry): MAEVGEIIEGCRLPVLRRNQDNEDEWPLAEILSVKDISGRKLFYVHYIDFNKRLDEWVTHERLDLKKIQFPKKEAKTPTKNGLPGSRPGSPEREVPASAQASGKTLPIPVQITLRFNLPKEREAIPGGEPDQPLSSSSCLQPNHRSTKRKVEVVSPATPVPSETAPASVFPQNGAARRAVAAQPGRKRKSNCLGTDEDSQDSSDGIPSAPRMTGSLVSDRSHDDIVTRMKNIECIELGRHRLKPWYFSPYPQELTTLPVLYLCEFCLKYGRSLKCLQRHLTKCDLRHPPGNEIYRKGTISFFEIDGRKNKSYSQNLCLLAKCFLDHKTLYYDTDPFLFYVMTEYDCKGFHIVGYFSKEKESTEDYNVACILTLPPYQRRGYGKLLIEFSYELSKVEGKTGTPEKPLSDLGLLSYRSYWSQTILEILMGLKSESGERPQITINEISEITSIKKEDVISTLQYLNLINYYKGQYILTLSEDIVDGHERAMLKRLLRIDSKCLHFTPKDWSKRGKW
For test [4], the target named is T1, Histone acetyltransferase KAT7. Particulars: 10 uM. The source holds these as a separate data set.
Test [5] has as its target T2, Histone acetyltransferase KAT2B (Homo sapiens, UniProt Q92831). As to the kind of experiment: Inhibition of recombinant GST-tagged PCAF (32 residues) (unknown origin) expressed in Escherichia coli using radiolabelled acetyl-CoA as substrate after 20 mins by TopCount scintillation counting analysis.
Target sequence in this assay (Q92831 whole entry): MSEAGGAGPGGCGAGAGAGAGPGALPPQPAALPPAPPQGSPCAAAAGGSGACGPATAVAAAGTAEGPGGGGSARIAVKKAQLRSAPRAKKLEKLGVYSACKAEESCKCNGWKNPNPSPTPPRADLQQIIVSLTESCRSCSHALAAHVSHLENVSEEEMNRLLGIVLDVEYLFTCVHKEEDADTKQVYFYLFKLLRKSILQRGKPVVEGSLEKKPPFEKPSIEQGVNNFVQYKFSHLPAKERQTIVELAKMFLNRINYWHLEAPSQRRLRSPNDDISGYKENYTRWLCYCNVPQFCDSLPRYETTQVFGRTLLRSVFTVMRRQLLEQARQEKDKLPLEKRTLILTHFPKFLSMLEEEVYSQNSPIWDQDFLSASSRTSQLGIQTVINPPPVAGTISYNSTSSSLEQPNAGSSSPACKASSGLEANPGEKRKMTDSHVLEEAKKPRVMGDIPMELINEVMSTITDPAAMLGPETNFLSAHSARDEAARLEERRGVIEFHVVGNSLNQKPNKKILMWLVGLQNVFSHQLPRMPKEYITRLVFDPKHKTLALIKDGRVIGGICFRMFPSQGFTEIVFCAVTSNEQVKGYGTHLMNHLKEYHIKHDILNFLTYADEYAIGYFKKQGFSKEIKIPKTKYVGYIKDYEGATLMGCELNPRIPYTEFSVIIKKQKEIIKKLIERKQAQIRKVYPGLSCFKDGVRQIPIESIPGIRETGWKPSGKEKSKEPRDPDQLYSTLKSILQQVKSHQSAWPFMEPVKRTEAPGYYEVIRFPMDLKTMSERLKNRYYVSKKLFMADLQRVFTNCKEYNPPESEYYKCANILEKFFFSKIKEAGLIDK
Test [6] concerns the target T2, Histone acetyltransferase KAT2B. The experiment in a line: Inhibition of recombinant GST-tagged PCAF (32 residues) (unknown origin) expressed in Escherichia coli assessed as reduction in H4K8 acetylation using radiolabelled acetyl-CoA as substrate after 20 mins by TopCount scintillation counting analysis relative to control.
Target sequence in this assay (Q92831 whole entry, looked up): as the sequence (Q92831 whole entry) above
Test [7] shares this target. As to the kind of experiment: Inhibition of recombinant GST-tagged PCAF (32 residues) (unknown origin) expressed in Escherichia coli assessed as reduction in H3K9 acetylation using radiolabelled acetyl-CoA as substrate after 20 mins by TopCount scintillation counting analysis relative to control.
Target sequence in this assay (Q92831 whole entry, looked up): as the sequence (Q92831 whole entry) above
The next test addresses CREB-binding protein (Homo sapiens, UniProt Q92793). The experiment in a line: Inhibition of CBP BHC domain (unknown origin).
Another test has as its system A549. As to the kind of experiment: Cytotoxicity against human A549 cells after 48 hrs by MTT assay. The conditions noted are these: A549, 48 h. In kind it is functional, cell-based. In general terms: Formazan colour is commonly taken as a measure of viable cells.
A short description of test [8]: Inhibition of HAT (unknown origin). Also noted: species or system Homo sapiens.

T1 sequence (O95251 whole entry): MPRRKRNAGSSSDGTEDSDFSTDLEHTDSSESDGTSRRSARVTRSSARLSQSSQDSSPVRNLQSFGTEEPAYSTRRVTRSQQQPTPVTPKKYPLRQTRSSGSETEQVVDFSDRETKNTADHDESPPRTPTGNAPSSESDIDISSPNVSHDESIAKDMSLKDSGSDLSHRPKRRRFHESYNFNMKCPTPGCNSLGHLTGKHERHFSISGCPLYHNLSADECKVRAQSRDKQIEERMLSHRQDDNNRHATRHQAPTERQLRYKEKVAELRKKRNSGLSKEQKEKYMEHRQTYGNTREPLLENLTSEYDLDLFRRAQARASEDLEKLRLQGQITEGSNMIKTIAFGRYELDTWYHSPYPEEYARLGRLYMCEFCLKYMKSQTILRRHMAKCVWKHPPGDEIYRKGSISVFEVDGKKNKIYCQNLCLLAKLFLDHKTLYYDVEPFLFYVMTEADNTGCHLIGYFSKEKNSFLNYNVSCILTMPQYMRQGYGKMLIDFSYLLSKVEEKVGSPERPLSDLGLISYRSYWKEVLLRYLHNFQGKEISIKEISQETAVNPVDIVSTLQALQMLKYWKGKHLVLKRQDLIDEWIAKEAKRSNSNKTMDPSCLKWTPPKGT
CREB-binding protein, sequence (Q92793 whole entry, the tested form may be a part): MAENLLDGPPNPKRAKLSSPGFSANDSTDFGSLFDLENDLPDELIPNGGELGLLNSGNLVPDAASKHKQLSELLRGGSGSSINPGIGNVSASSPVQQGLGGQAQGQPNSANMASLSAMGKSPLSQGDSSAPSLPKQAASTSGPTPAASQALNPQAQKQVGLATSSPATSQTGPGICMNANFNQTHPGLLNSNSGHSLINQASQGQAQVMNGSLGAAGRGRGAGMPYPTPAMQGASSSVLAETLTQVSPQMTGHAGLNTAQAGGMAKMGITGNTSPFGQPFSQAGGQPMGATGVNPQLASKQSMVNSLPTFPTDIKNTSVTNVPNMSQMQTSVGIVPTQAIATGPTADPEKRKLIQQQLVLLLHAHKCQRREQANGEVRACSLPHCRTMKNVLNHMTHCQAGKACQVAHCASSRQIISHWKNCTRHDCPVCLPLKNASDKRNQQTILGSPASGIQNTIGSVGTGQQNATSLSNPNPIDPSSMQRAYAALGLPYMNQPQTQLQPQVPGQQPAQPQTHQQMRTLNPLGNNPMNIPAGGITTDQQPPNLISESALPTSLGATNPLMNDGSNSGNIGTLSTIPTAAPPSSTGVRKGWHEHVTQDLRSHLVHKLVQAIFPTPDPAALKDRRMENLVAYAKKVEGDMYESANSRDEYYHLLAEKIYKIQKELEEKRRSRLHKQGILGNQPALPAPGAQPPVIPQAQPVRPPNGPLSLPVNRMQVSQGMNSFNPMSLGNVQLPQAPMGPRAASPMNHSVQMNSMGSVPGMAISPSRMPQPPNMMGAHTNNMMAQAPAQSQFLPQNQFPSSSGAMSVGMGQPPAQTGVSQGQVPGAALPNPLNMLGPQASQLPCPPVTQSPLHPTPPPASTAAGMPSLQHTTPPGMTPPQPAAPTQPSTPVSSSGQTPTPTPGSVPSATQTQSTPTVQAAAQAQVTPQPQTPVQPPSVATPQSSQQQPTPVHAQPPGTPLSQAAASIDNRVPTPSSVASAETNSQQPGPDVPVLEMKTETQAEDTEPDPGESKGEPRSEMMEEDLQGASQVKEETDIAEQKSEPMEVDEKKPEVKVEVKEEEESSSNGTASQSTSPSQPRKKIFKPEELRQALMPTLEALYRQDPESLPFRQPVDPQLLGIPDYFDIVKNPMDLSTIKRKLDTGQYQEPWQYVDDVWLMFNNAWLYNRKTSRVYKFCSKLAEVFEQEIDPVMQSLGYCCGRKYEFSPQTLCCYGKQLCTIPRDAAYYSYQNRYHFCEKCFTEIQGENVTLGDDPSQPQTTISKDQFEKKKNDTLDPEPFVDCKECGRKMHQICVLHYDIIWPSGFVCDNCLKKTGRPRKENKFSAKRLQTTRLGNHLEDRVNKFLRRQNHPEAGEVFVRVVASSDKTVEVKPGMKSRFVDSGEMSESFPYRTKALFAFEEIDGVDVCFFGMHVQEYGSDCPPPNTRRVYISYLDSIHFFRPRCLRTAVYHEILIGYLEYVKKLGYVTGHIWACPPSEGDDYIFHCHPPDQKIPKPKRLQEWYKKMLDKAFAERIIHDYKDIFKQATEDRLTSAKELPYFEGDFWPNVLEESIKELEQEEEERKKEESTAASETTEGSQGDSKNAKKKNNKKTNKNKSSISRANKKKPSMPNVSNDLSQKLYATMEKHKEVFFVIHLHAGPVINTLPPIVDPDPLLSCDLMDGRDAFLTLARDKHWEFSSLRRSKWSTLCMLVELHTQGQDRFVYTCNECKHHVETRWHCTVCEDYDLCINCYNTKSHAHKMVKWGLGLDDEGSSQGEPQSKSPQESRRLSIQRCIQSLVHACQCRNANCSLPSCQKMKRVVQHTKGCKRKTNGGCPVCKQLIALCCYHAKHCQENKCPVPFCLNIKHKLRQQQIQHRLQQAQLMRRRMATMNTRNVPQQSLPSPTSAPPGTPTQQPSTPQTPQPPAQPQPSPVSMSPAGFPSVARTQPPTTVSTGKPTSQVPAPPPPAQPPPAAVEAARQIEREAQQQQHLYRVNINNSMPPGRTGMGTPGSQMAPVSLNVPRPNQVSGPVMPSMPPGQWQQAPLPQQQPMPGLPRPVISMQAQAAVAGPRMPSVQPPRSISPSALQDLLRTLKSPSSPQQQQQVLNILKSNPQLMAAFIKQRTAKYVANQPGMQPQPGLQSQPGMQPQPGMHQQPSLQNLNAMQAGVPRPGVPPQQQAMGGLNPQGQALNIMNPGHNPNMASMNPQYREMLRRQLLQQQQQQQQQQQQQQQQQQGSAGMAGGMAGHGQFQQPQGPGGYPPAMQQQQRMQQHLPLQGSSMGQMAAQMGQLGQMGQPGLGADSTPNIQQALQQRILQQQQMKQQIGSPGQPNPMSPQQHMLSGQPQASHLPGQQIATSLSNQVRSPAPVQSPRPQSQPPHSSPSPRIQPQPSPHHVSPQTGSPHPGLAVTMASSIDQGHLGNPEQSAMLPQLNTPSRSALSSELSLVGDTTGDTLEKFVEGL

As for `O=C(NNS(=O)(=O)c1ccc2ccccc2c1)c1ccccc1F`, the inhibition in test [1] and in test [4] was 49% throughout. The IC50 in test [2] and in test [3] was more than 200000 nM in each case.
On to `O=c1cc(Cl)sn1-c1ccc([N+](=O)[O-])cc1`, for which, in test [5], the IC50 (commonly the midpoint of a concentration-inhibition curve) amounted to 2200 nM. For the same molecule, the figures for the inhibition in test [6] and in [7] were 55.5% and 38.6%, respectively.
In the case of `CC1=NN(c2ccc(C(=O)O)cc2)C(=O)/C1=C/c1ccc(-c2cc(C)c(C)cc2[N+](=O)[O-])o1`, the IC50 on CREB-binding protein is 2.6 nM.
Molecule `COc1cc(OC)cc(C(=O)Nc2ccc3c(C)c(C(=O)c4cc(OC)ccc4OC)oc3c2)c1` registered an IC50 in the test with A549 of 58.3 µg/mL (≈ 123 µM).
In [8], `C#CCN(Cc1ccc2[nH]c(N)nc(=O)c2c1)c1ccc(C(=O)N[C@@H](CCC(=O)O)C(=O)O)cc1` came in with an IC50 of 225 nM.
